Reference: PMC10459042, “Synthesis of 1,2,3-Triazole-Containing Methoxylated Cinnamides and Their Antileishmanial Activity against the Leishmania braziliensis Species” (Pharmaceuticals, 2023)

How the values were obtained:
[1] = test system: L. braziliensis-infected macrophages; experiment: Treatment of infected macrophages; assay type: cell-based, Leishmania braziliensis; conditions: 48 h at 37 °C; for Number of Amastigotes per Cell after treatment: untreated 10.3; for Percentage of Infected Macrophages after Treatment: untreated 92.8
Experimental: Murine macrophages (5 × 10^5 cells) were plated on round glass coverslips in 24-well plates in RPMI 1640 medium with added 20% FBS and 20 mmol/L L-glutamine at pH 7.4 and incubated for 24 h at 37 °C in 5% CO2. Promastigotes were added to the wells (at a ratio of 10 parasites per macrophage), and cultures were incubated for 48 h at 37 °C in a 5% CO2 environment. Free parasites were removed by extensive washing with RPMI 1640 medium, and the infected macrophages were treated with Compound 28 or AmpB (0, 1.0, 2.5 and 5.0 µg/mL in both cases) for 48 h at 37 °C in 5% CO2.
To evaluate the inhibition of infection, promastigotes (5 × 10^6 cells) were first incubated with Compound 28 or AmpB (0, 1.0, 2.5 and 5.0 µg/mL in both cases) for 4 h at 24 °C; these were then used to infect murine macrophages (at a ratio of 10 parasites per macrophage) and incubated for 24 h at 37 °C in 5% CO2. Then, cells were fixed with 4% paraformaldehyde, washed, and stained with Giemsa. The percentage of infected macrophages and the number of recovered amastigotes were determined by counting 200 cells, in triplicate, using an optical microscope.

[2] = test system: L. braziliensis-infected macrophages; experiment: ROS levels in Leishmania-infected macrophages (H2DCFDA); assay type: cell-based, Leishmania braziliensis; conditions: 5.0 µg/mL, 48 h at 37 °C
Experimental: Macrophages (1 × 10^6 cells/mL) were incubated in 96-well culture plates (Nunc, Nunclon, Roskilde, Denmark) and infected with L. braziliensis promastigotes (at a ratio of 10 parasites per cell). The infected macrophages were either left untreated or treated with Compound 28 (at a concentration of 5.0 µg/mL) for 48 h at 37 °C in 5% CO2. The cells were washed with PBS and incubated with 20 μmol/L H2DCFDA (Molecular Probes, Eugene, Oregon, USA) for 30 min in the dark. The fluorescence intensity was measured using a spectrofluorometer (FLx800; BioTek Instruments, Winooski, VT, USA) at 485 nm excitation and 528 nm emission. As a positive control, the infected macrophages were incubated with H2O2 at a concentration of 0.02 µg/mL (0.5 µmol/L). Parasites that were untreated with Compound 28 and not labeled with the fluorescent probe were used as the sample blank.
Figure 3 Production of ROS in L. braziliensis-infected macrophages treated with Compound 28. Leishmania braziliensis-infected macrophages (1 × 10^5 cells) were incubated with Compound 28 (5.0 µg/mL) for 48 h at 37 °C in a 5% CO2 environment. Subsequently, 2′,7′-dichlorodihydrofluorescein diacetate (H2DCFDA, 9.7 μg/mL) was added for 30 min under dark conditions. The fluorescence levels were measured in a spectrofluorometer at 485/528 nm. H2O2 (0.5 µmol/L) was used as a positive control. […]

[3] = test system: Leishmania braziliensis promastigotes; experiment: Depolarization of mitochondrial membrane potential (ΔΨm), JC-1; assay type: cell-based; conditions: one IC50 value, 48 h at 24 °C; non-treated parasites 7.2
Experimental: Leishmania braziliensis promastigotes (1 × 10^7 cells/mL) were treated with compound 28 (at a concentration corresponding to one IC50 value) for 48 h at 24 °C. The parasites (3 × 10^6 cells/mL) were then labeled with JC-1 (5 µg/mL, Sigma-Aldrich, St. Louis, MO, USA) for 30 min at 37 °C. After washing twice with PBS to remove the non-internalized dye, the samples were added to a black 96-well plate, and the ΔΨm was analyzed in a spectrofluorometer (FLx800, BioTek Instruments, Winooski, VT, USA) with an excitation filter of 485 nm and emission wavelength of 528 nm and […] to measure the green and red fluorescence, respectively. The ΔΨm was determined using the ratio between the red/green fluorescence intensity. Parasites that were exposed to 1.3 µg/mL (5.0 µmol/L) of FCCP (Sigma-Aldrich, St. Louis, MO, USA) for 20 min were used as a control. […]
Figure 4 ΔΨm and ROS production in Leishmania after exposure to Compound 28. […] (A) Depolarization of ΔΨm was evaluated using the JC-1 fluorescent probe. Samples were analyzed fluorometrically, and the results are expressed as the ratio of red/green fluorescence. […] (B) ROS production was evaluated using the H2DCFDA probe. The fluorescence intensity was measured by fluorimetry, and the results are expressed as the fold increase in the ROS level compared with the non-treated control. […]

[4] = test system: L. braziliensis promastigotes; experiment: Membrane permeability evaluation (propidium iodide); assay type: cell-based, Leishmania braziliensis; conditions: one IC50 value, 48 h at 24 °C
Experimental: L. braziliensis promastigotes (1 × 10^7 cells/mL) were incubated with Compound 28 (at a concentration corresponding to one IC50 value) for 48 h at 24 °C. After washing with PBS, parasites (3 × 10^6 cells/well) were incubated with 1.0 µg/mL PI (Sigma-Aldrich, St. Louis, MO, USA) in the dark for 15 min. The samples were analyzed using a fluorometer microplate reader (FLx800, BioTek Instruments, Winooski, VT, USA), with excitation and emission wavelengths of […], respectively. Parasites that were killed by heating to 65 °C for 10 min were used as controls for the membrane permeabilization. Parasites that were untreated or treated with Compound 28 and not labeled with the fluorescent probe were used as the sample blank.
Figure 5 Effect of Compound 28 on parasite membrane permeability. Parasite promastigotes were either left untreated or treated with Compound 28 (at a concentration corresponding to the IC50 value) for 48 h. The PI dye fluorescence was measured fluorometrically at excitation and emission wavelengths of 540 and 600 nm, respectively. Parasites heated at 65 °C for 10 min were used as a positive control. The data is presented as the fold increase in PI fluorescence relative to the untreated control. (***), signifying p < 0.001, indicates a statistically significant difference compared with the non-treated control.

CCN(CC)c1ccc2cc(-n3cc(CNC(=O)/C=C/c4ccc(OC)c(OC)c4)nn3)c(=O)oc2c1 [Compound 28, N-((1-(7-(diethylamino)-2-oxo-2H-chromen-3-yl)-1H-1,2,3-triazol-4-yl)methyl) (3,4-dimethoxy) cinnamide]
Number of Amastigotes per Cell after treatment ([1]; 1.0 µg/mL): 6.7 | Percentage of Infected Macrophages after Treatment ([1]; 1.0 µg/mL): 79.5% | Number of Amastigotes per Cell after treatment ([1]; 2.5 µg/mL): 4.0 | Percentage of Infected Macrophages after Treatment ([1]; 2.5 µg/mL): 70.3% | Number of Amastigotes per Cell after treatment ([1]; 5.0 µg/mL): 2.9 | Percentage of Infected Macrophages after Treatment ([1]; 5.0 µg/mL): 60.2% | Increase in ROS levels in treated and infected cells compared with untreated cells [2]: 44.1% | ΔΨm, JC-1 ratio of red/green fluorescence [3]: 4.0 | Fold increase in PI-fluorescence compared with untreated parasites [4]: 2.3 fold
